# In EPA's ToxValDB 9.5:
# What was measured:
# Rattus norvegicus [1] = conditions: oral, gavage
# Rattus norvegicus [2] = conditions: inhalation
# [3] = reproduction developmental, duration: 28 days, M, Wistar, generation: P0, P0: Whole Body: Body Weight Change
# [4] = short-term, duration: 28 days, F, Wistar, Kidney: Creatinine (CREAT)
# [5] = short-term, duration: 28 days, F, Wistar, Kidney: Creatinine (CREAT) + Multi-Organ: Gamma-Glutamyl Transferase (GGT)
# [6] = short-term, duration: 28 days, F, Wistar, Kidney: Fluoride, Total Urinary Excretion + Kidney: Fluoride, Urine + Kidney: Urinary Fluoride/Creatinine Ratio + Liver: Liver Weight, …
# [7] = short-term, duration: 28 days, F, Wistar, Liver: Liver Weight, Absolute + Liver: Liver Weight, Relative + Lung: Lung Histopathology + Lung: Lung Weight, Absolute + Lung: Lung Weight…
# [8] = short-term, duration: 28 days, F, Wistar, Liver: Total Bilirubin (TBILI)
# [9] = short-term, duration: 28 days, M, Wistar, Kidney: Creatinine (CREAT) + Whole Body: Body Weight Change + Whole Body: Food Conversion Efficiency + Whole Body: Food Intake
# [10] = short-term, duration: 28 days, M, Wistar, Kidney: Fluoride, Total Urinary Excretion + Kidney: Fluoride, Urine + Kidney: Urinary Fluoride/Creatinine Ratio + Lung: Lung Histopathology…
# [11] = short-term, duration: 28 days, M, Wistar, Liver: Albumin (A) + Liver: Triglycerides (TRIG) + Multi-Organ: Cholesterol, Total + Multi-organ: Glucose (GLU)
# [12] = short-term, duration: 28 days, M, Wistar, Liver: Albumin (A) + Multi-Organ: Glucose (GLU) + Renal: Fluoride, Total Urinary Excretion + Renal: Fluoride, Urine + Renal: Fluoride/…
# [13] = short-term, duration: 28 days, M, Wistar, Lung: Lung Histopathology + Lung: Lung Weight, Absolute + Lung: Lung Weight, Relative + Spleen: Spleen Weight, Absolute + Spleen: Spleen …
# [14] = short-term, duration: 28 days, M, Wistar, Whole Body: Body Weight Change
# [15] = subchronic, duration: 91 days, F, Wistar, Blood: Albumin/Globulin (A/G) Ratio + Liver: Liver Weight, Relative + Multi-Organ: Acyl-CoA Oxidase Activity
# [16] = subchronic, duration: 91 days, F, Wistar, Kidney: Kidney Weight, Relative + Liver: Albumin (A)
# [17] = subchronic, duration: 91 days, M, Wistar, Blood: Mean Corpuscular Hemoglobin (MCH) + Liver: Albumin (A) + Liver: Alkaline Phosphatase (ALP) + Liver: Cholesterol (CHOL), Total + Liver…
# [18] = subchronic, duration: 91 days, M, Wistar, Blood: Mean Corpuscular Hemoglobin (MCH), Recovery + Blood: Mean Corpuscular Volume (MCV) + Blood: Platelet Count (PLT), Recovery + Blood: …
structure (smiles),measurement,setting,value
"C=C(F)C(F)(F)C(F)(F)C(F)F [2,3,3,4,4,5,5-Heptafluoro-1-pentene]",NOEL,"Rattus norvegicus [1]; short-term, duration: 28 days, M/F, Deaths + Clinical Observation: Salivation Locomotor activity decrease, Whitish discoloration of tooth Bradypnea Reddening of extremity and …",8 mg/kg-day
"CO[Si](CCCNCCN)(OC)OC [N-[3-(Trimethoxysilyl)propyl]ethane-1,2-diamine]",NOAEL,"Rattus norvegicus [1]; short-term, duration: 28 days, M, Sprague-Dawley, Clinical Observation: Perioral soiling Increased nasal sounds Labored respiration Soft vocalization",500 mg/kg-day
Nc1cc(Cl)ccc1O [2-Amino-4-chlorophenol],NOEL,"Rattus norvegicus [1]; subchronic, M, Sprague-Dawley, Hematology: RBC decrease, Hgb decrease, MCHC decrease, Ret increase, Hct decrease + Absolute Organ Weight: Spleen increase + Relative Organ …",50 mg/kg-day
CCCCCc1cc(O)c2c(c1)OC(C)(C)[C@@H]1CCC(C)=C[C@@H]21 [Tetrahydrocannabinol],NOEL,"Rattus norvegicus [1]; subchronic, duration: 13 weeks, M/F, Fischer 344, Deaths: Administration groups for 13 weeks(1/10 )(2/10 )(6/10 /10 ) + Clinical Observation: Convulsion Aggressive behavior: Dose is unknown …",< 5 mg/kg-day
O=C(C(F)(F)C(F)(F)F)C(F)(C(F)(F)F)C(F)(F)F [Perfluoro-2-methyl-3-pentanone],NOAEL,"Rattus norvegicus [2]; developmental, duration: 13 days, M/F, Sprague-Dawley, generation: F1, F1: Uterus: Resorptions, Early + F1: Uterus: Resorptions, Late + F1: Whole Body: Fetal Alterations, Total",38800 mg/m3
same,NOAEL,"Rattus norvegicus [2]; reproduction developmental, duration: 4 days, F, Wistar, generation: F1, F1: Whole Body: Body Weight Change + F1: Whole Body: Body Weight, Absolute + F1: Whole Body: Clinical Observations + F1: Whole Body: Live …",38800 mg/m3
same,NOAEL,"Rattus norvegicus [2]; reproduction developmental, duration: 4 days, F, Wistar, generation: P0, P0: Uterus: Estrous Cycle + P0: Whole Body: Body Weight Change + P0: Whole Body: Body Weight, Absolute + P0: Whole Body: Clinical …",38800 mg/m3
same,NOAEL,"Rattus norvegicus [2]; reproduction developmental, duration: 13 days, F, Sprague-Dawley, generation: P0, P0: Ovary: Corpora Lutea + P0: Ovary: Ovary, Necropsy + P0: Placenta: Normal Placenta + P0: Uterus: Implantation + P0: Uterus: Uterine …",38800 mg/m3
same,NOAEL,"Rattus norvegicus [2]; reproduction developmental, duration: 28 days, M, Wistar, generation: P0, P0: Epididymis: Epididymis Weight, Absolute + P0: Testis: Testis Weight, Absolute + P0: Whole Body: Body Weight, Absolute + P0: Whole Body: …",38800 mg/m3
same,LOAEL,Rattus norvegicus [2]; [3],12900 mg/m3
same,NOAEL,Rattus norvegicus [2]; [3],3880 mg/m3
same,NOAEL,"Rattus norvegicus [2]; short-term, duration: 28 days, F, Wistar, Adrenal: Adrenal Gland Histopathology + Bladder: Urinary Bladder Histopathology + Blood: Albumin/Globulin (A/G) Ratio + Blood: Hematocrit (…",259000 mg/m3
same,NOAEL,"Rattus norvegicus [2]; short-term, duration: 28 days, F, Wistar, Blood: Albumin/Globulin (A/G) Ratio + Blood: Hematology, Unspecified + Liver: Albumin (A) + Liver: Liver Histopathology + Multi-Organ: …",245000 mg/m3
same,LOAEL,Rattus norvegicus [2]; [4],259000 mg/m3
same,NOAEL,Rattus norvegicus [2]; [4],129000 mg/m3
same,LOAEL,Rattus norvegicus [2]; [5],245000 mg/m3
same,NOAEL,Rattus norvegicus [2]; [5],125000 mg/m3
same,LOAEL,Rattus norvegicus [2]; [6],125000 mg/m3
same,NOAEL,Rattus norvegicus [2]; [6],49600 mg/m3
same,LOAEL,Rattus norvegicus [2]; [7],129000 mg/m3
same,NOAEL,Rattus norvegicus [2]; [7],51700 mg/m3
same,LOAEL,"Rattus norvegicus [2]; short-term, duration: 28 days, F, Wistar, Liver: Peroxisome Induction + Liver: Phospholipid + Liver: Triglycerides (TRIG) + Spleen: Spleen Weight, Absolute + Spleen: Spleen Weight, …",12900 mg/m3
same,LOAEL,"Rattus norvegicus [2]; short-term, duration: 28 days, F, Wistar, Liver: Peroxisome Induction + Liver: Phospholipid + Spleen: Spleen Weight, Absolute + Spleen: Spleen Weight, Relative",12400 mg/m3
same,LOAEL,Rattus norvegicus [2]; [8],51700 mg/m3
same,NOAEL,Rattus norvegicus [2]; [8],12900 mg/m3
same,NOAEL,"Rattus norvegicus [2]; short-term, duration: 28 days, M, Wistar, Adrenal: Adrenal Gland Histopathology + Bladder: Urinary Bladder Histopathology + Blood: Hematocrit (HCT) + Blood: Hemoglobin (HGB) + Blood…",259000 mg/m3
same,NOAEL,"Rattus norvegicus [2]; short-term, duration: 28 days, M, Wistar, Blood: Albumin/Globulin (A/G) Ratio + Blood: Hematology, Unspecified + Kidney: Creatinine (CREAT) + Liver: Phospholipid + Multi-Organ: Gamma…",245000 mg/m3
same,LOAEL,"Rattus norvegicus [2]; short-term, duration: 28 days, M, Wistar, Blood: Albumin/Globulin (A/G) Ratio + Liver: Liver Histopathology + Liver: Liver Weight, Absolute + Liver: Liver Weight, Relative + Liver: …",12900 mg/m3
same,LOAEL,Rattus norvegicus [2]; [9],259000 mg/m3
same,NOAEL,Rattus norvegicus [2]; [9],129000 mg/m3
same,LOAEL,Rattus norvegicus [2]; [10],125000 mg/m3
same,NOAEL,Rattus norvegicus [2]; [10],49600 mg/m3
same,LOAEL,Rattus norvegicus [2]; [11],49600 mg/m3
same,NOAEL,Rattus norvegicus [2]; [11],12400 mg/m3
same,LOAEL,Rattus norvegicus [2]; [12],51700 mg/m3
same,NOAEL,Rattus norvegicus [2]; [12],12900 mg/m3
same,LOAEL,"Rattus norvegicus [2]; short-term, duration: 28 days, M, Wistar, Liver: Liver Histopathology + Liver: Liver Weight, Absolute + Liver: Liver Weight, Relative + Liver: Peroxisome Induction",12400 mg/m3
same,LOAEL,Rattus norvegicus [2]; [13],129000 mg/m3
same,NOAEL,Rattus norvegicus [2]; [13],51700 mg/m3
same,LOAEL,Rattus norvegicus [2]; [14],245000 mg/m3
same,NOAEL,Rattus norvegicus [2]; [14],125000 mg/m3
same,LOAEL,Rattus norvegicus [2]; [15],38800 mg/m3
same,NOAEL,Rattus norvegicus [2]; [15],12900 mg/m3
same,NOAEL,"Rattus norvegicus [2]; subchronic, duration: 91 days, F, Wistar, Blood: Albumin/Globulin (A/G) Ratio, Recovery + Blood: Mean Corpuscular Hemoglobin (MCH) + Blood: Mean Corpuscular Volume (MCV) + Blood: Red…",38800 mg/m3
same,LOAEL,Rattus norvegicus [2]; [16],12900 mg/m3
same,NOAEL,Rattus norvegicus [2]; [16],3880 mg/m3
same,LOAEL,"Rattus norvegicus [2]; subchronic, duration: 91 days, F, Wistar, Spleen: Spleen Weight, Absolute",3880 mg/m3
same,LOAEL,"Rattus norvegicus [2]; subchronic, duration: 91 days, M, Wistar, Blood: Albumin/Globulin (A/G) Ratio + Kidney: Kidney Weight, Absolute + Kidney: Kidney Weight, Relative + Liver: Liver Weight, Absolute + …",3880 mg/m3
same,NOAEL,"Rattus norvegicus [2]; subchronic, duration: 91 days, M, Wistar, Blood: Albumin/Globulin (A/G) Ratio, Recovery + Brain: Brain Weight, Absolute + Brain: Brain Weight, Relative + Eye: Ophthalmology, …",38800 mg/m3
same,LOAEL,Rattus norvegicus [2]; [17],12900 mg/m3
same,NOAEL,Rattus norvegicus [2]; [17],3880 mg/m3
same,LOAEL,Rattus norvegicus [2]; [18],38800 mg/m3
same,NOAEL,Rattus norvegicus [2]; [18],12900 mg/m3
